Data from ChEMBL document CHEMBL5154900, “Design and Synthesis of Dual EZH2/BRD4 Inhibitors to Target Solid Tumors” (J Med Chem, 2022).
Calls of active or inactive are those of the source. The rule behind the calls is not given here.

Columns and labels:
HCT-116 = assay: Induction of apoptosis in human HCT116 cells assessed as early apoptotic cells at 10 uM measured after 72 hrs by flow cytometry (reference value: 2.8 %); type: functional
ASPC1 = assay: Antiproliferative activity against human ASPC1 cells assessed as cell growth inhibition incubated for 6 days by MTS assay; type: functional, cell-based; details: ASPC1, 144 h
[1] = biological target: T1, Histone-lysine N-methyltransferase EZH2 (Homo sapiens, UniProt Q15910); assay: Inhibition of EZH2 in human ASPC1 cells assessed as decrease in H3K27me3 levels at 1 uM incubated for 72 hrs by Western blot analysis; type: cell-based
Target sequence in this assay (Q15910 whole entry, looked up): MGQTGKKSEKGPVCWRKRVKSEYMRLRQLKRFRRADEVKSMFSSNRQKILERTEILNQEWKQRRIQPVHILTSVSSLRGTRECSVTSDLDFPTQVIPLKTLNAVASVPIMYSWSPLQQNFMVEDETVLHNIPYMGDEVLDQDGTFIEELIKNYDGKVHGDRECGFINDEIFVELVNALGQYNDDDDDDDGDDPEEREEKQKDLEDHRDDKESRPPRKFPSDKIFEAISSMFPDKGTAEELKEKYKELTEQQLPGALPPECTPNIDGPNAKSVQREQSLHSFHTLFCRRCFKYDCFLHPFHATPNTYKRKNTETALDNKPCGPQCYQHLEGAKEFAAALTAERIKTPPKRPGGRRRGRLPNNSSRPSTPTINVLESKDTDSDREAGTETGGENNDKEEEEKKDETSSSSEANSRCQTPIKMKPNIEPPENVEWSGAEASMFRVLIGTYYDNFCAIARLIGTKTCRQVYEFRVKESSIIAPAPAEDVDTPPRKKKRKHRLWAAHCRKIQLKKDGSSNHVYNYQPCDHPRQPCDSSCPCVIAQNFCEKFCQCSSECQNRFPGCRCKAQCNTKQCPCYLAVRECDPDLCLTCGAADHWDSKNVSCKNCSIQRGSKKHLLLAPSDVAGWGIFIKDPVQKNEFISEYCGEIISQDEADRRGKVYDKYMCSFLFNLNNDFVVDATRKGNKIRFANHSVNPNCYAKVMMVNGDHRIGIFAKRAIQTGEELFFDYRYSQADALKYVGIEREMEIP

[2] = biological target: T1, Histone-lysine N-methyltransferase EZH2
Target sequence in this assay (Q15910 whole entry): as the sequence (Q15910 whole entry, looked up) above

[3] = biological target: T2, Bromodomain-containing protein 4 (Homo sapiens, UniProt O60885); assay: Displacement of fluorescein-labeled JQ1 from His6/TEV cleavage site fused human BRD4 (residues N44 to E168) expressed in Escherichia coli BL21 (DE3) incubated for 60 min by Fluorescence polarization assay
[4] = biological target: T2, Bromodomain-containing protein 4; assay: Inhibition of BRD4 in human ASPC1 cells assessed as decrease in c-Myc level at 1 uM incubated for 72 hrs by Western blot analysis; type: cell-based

**Q.** With `CCN(c1cc(-c2ccc(CN3CCOCC3)cc2)cc(C(=O)NCc2c(C)cc(C)[nH]c2=O)c1C)C1CCOCC1` [TAZEMETOSTAT] as the compound, how does the Activity (HCT-116) read?
**A.** 2.8%

**Q.** What about the IC50 (ASPC1; read-out: IC50) of the same compound?
**A.** > 30 µM

**Q.** Which results are given for `CCN(c1cc(-c2ccc(CCNC(=O)C[C@@H]3N=C(c4ccc(Cl)cc4)c4c(sc(C)c4C)-n4c(C)nnc43)cc2)cc(C(=O)NCc2c(C)cc(C)[nH]c2=O)c1C)C1CCOCC1`?
**A.** inhibition [1]: Active; IC50 (ASPC1; read-out: IC50): 2.61 µM; IC50 [2]: 77.8 µM; IC50 [3]: 0.945 µM

**Q.** `CCN(c1cc(-c2ccc(CNC(=O)C[C@@H]3N=C(c4ccc(Cl)cc4)c4c(sc(C)c4C)-n4c(C)nnc43)cc2)cc(C(=O)NCc2c(C)cc(C)[nH]c2=O)c1C)C1CCOCC1` was tested. Which inhibition [1] did it give?
**A.** Active

**Q.** And the IC50 (ASPC1; read-out: IC50)?
**A.** 6.5 µM

**Q.** What about the IC50 [2] of the same compound?
**A.** 29.8 µM

**Q.** What about the IC50 [3] of the same compound?
**A.** 1.48 µM

**Q.** For `CCN(c1cc(-c2ccc(NC(=O)CCOCCOCCOCCNC(=O)C[C@@H]3N=C(c4ccc(Cl)cc4)c4c(sc(C)c4C)-n4c(C)nnc43)cc2)cc(C(=O)NCc2c(C)cc(C)[nH]c2=O)c1C)C1CCOCC1`, which IC50 (ASPC1; read-out: IC50) is on record?
**A.** 9.25 µM

**Q.** What about the IC50 [2] of the same compound?
**A.** 1.04 µM

**Q.** And the IC50 [3]?
**A.** 0.604 µM

**Q.** For `CCN(c1cc(-c2ccc(NC(=O)C[C@@H]3N=C(c4ccc(Cl)cc4)c4c(sc(C)c4C)-n4c(C)nnc43)cc2)cc(C(=O)NCc2c(C)cc(C)[nH]c2=O)c1C)C1CCOCC1`, which IC50 (ASPC1; read-out: IC50) is on record?
**A.** 13.8 µM

**Q.** What about the IC50 [2] of the same compound?
**A.** 16.1 µM

**Q.** What about the IC50 [3] of the same compound?
**A.** 2.84 µM

**Q.** Which results are given for `CCN(c1cc(-c2ccc(NC(=O)CCCCCCNC(=O)C[C@@H]3N=C(c4ccc(Cl)cc4)c4c(sc(C)c4C)-n4c(C)nnc43)cc2)cc(C(=O)NCc2c(C)cc(C)[nH]c2=O)c1C)C1CCOCC1`?
**A.** IC50 (ASPC1; read-out: IC50): 11.2 µM; IC50 [2]: 0.53 µM; IC50 [3]: 0.58 µM

**Q.** For `CCN(c1cc(-c2ccc(C(=O)NCCOCCNC(=O)C[C@@H]3N=C(c4ccc(Cl)cc4)c4c(sc(C)c4C)-n4c(C)nnc43)cc2)cc(C(=O)NCc2c(C)cc(C)[nH]c2=O)c1C)C1CCOCC1`, which inhibition [1] is on record?
**A.** Active

**Q.** What about the IC50 (ASPC1; read-out: IC50) of the same compound?
**A.** 7.09 µM

**Q.** And the IC50 [2]?
**A.** 0.3 µM

**Q.** What about the IC50 [3] of the same compound?
**A.** 0.248 µM

**Q.** For `CCN(c1cc(-c2ccc(OCCCCNC(=O)C[C@@H]3N=C(c4ccc(Cl)cc4)c4c(sc(C)c4C)-n4c(C)nnc43)cc2)cc(C(=O)NCc2c(C)cc(C)[nH]c2=O)c1C)C1CCOCC1`, which inhibition [1] is on record?
**A.** Active

**Q.** And the inhibition [4]?
**A.** Active

**Q.** What about the IC50 (ASPC1; read-out: IC50) of the same compound?
**A.** 0.99 µM

**Q.** And the IC50 [2]?
**A.** 0.42 µM

**Q.** What about the IC50 [3] of the same compound?
**A.** 0.082 µM

**Q.** Which results are given for `Cc1sc2c(c1C)C(c1ccc(Cl)cc1)=N[C@@H](CC(=O)OC(C)(C)C)c1nnc(C)n1-2`?
**A.** Activity (HCT-116): 20.3%; IC50 (ASPC1): 3.39 µM

**Q.** `CCN(c1cc(-c2ccc(OCCNC(=O)C[C@@H]3N=C(c4ccc(Cl)cc4)c4c(sc(C)c4C)-n4c(C)nnc43)cc2)cc(C(=O)NCc2c(C)cc(C)[nH]c2=O)c1C)C1CCOCC1` was tested. Which inhibition [4] did it give?
**A.** Active

**Q.** What about the IC50 (ASPC1; read-out: IC50) of the same compound?
**A.** 1.86 µM

**Q.** What about the IC50 [2] of the same compound?
**A.** 7.55 µM

**Q.** What about the IC50 [3] of the same compound?
**A.** 1.54 µM

**Q.** Which results are given for `CCN(c1cc(-c2ccc(OCCCNC(=O)C[C@@H]3N=C(c4ccc(Cl)cc4)c4c(sc(C)c4C)-n4c(C)nnc43)cc2)cc(C(=O)NCc2c(C)cc(C)[nH]c2=O)c1C)C1CCOCC1`?
**A.** inhibition [4]: Active; IC50 (ASPC1; read-out: IC50): 1.37 µM; IC50 [2]: 0.98 µM; IC50 [3]: 1.72 µM

**Q.** With `CCN(c1cc(-c2ccc(NC(=O)CCCCCCCNC(=O)C[C@@H]3N=C(c4ccc(Cl)cc4)c4c(sc(C)c4C)-n4c(C)nnc43)cc2)cc(C(=O)NCc2c(C)cc(C)[nH]c2=O)c1C)C1CCOCC1` as the compound, how does the IC50 (ASPC1; read-out: IC50) read?
**A.** 17.5 µM

**Q.** What about the IC50 [2] of the same compound?
**A.** 0.55 µM

**Q.** And the IC50 [3]?
**A.** 2.34 µM
